According to US20080280862A1, “Methods, compositions, and kits for the treatment of pain” (priority 2007, published 2008):

What was measured:
[1] = test system: acetic acid-induced pain model in mice; test: Acetic acid pain model, writhes; format: in vivo, ICR mice
Protocol: The acetic acid is a reliable fast model for noxious/visceral pain usually used for screening potential drug candidates for their analgesic activity. The effects of test article combinations on pain generation are assayed using the acetic acid-induced pain model in mice. Adult male ICR mice are administered study drugs intraperitoneally (vehicle, TCA, steroid or TCA/Steroid test article combinations) once daily for 2 days (day −2 and day −1) and 30 minutes prior to the acetic acid injection on day 0 (time=0). […] To elicit a pain response, dilute acetic acid (10 ml/kg of 0.6% solution) is injected intraperitoneally into the abdomen. The animal is placed in an observation chamber, and 5 minutes after acetic acid administration, the number of writhes is counted and recorded over a five minute period by a blinded observer. A writhe is considered as a contraction of the abdominal muscles accompanied by an elongation of the body and extension of the hind limb. Results are expressed as number of writhes.

[2] = test system: carrageenan-induced pain model in rats; test: Carrageenan pain model, mechanical allodynia by Von Frey filaments; format: in vivo, Sprague-Dawley rats; conditions: for Mean AUC ± SEM: AUC from 20 minutes through 120 minutes following carrageenan injection
Protocol: The carrageenan model is a fast, reliable model used to assess the ability of analgesics to block inflammatory pain. The analgesic effects of test article combinations on pain generation are assayed using the carrageenan-induced pain model in rats. Adult male Sprague-Dawley rats are administered study drugs intraperitoneally (vehicle, tricyclic compound (TCA), steroid or TCA/Steroid test article combinations) once daily for 2 days (day −2 and day −1) and 30 minutes prior to the carrageenan injection on day 0 (time=0). For the carrageenan injection, animals are lightly anesthetized and 0.1 ml of 2% carrageenan is injected into the plantar surface of the right hind paw. The positive control diclofenac at a dose of 25 mg/kg is administered intraperitoneally immediately before the carrageenan injection. Paw volumes (right and left) are measured using a plathysmometer before drug administration on day −2 and serve as a baseline measurement. The paw volumes are measured again two hours post carrageenan injection. The degree of mechanical allodynia is measured by a blinded observer using Von Frey filaments applied to the plantar surface of the hind paws in an increasing numerical order. Each filament increases the force applied on the paw. The filaments are applied until animal paw withdrawal is achieved. This procedure is carried out before drug administration (day −2), on day −1 and on day 0 at time=0, 20, 40, 60, 80 and 120 minutes post-carrageenan. The force (expressed in grams) required for paw withdrawal after carrageenan injection is subtracted from the force required for paw withdrawal before carrageenan injection. Results are expressed as mean change from baseline across five timepoints post carrageenan injection in Table 4.
For a synergy calculation, experimental data from the carrageenan study are fitted to a median-effect model and used to calculate the parameters' median-effect dose (Dm), slope (m), correlation coefficient (r), combination index (CI) and dose-reduction index (DRI). In addition, the probability of pain inhibition occurring after single-component (nortriptyline) versus the combination drug treatments are calculated from the negative change from baseline data using a Bayesian sensitivity analysis. The likelihood of pain inhibition is characterized for nortriptyline administered alone (1 mg/kg or 3 mg/kg) versus the fixed-dose combination treatments [prednisolone (0.3 mg/kg):nortriptyline (1 mg/kg) or prednisolone (1 mg/kg):nortriptyline (3 mg/kg)] each evaluated at 60 and 80 minutes for analgesic effect.
In another example, the effects of test article combinations on pain inhibition were assayed using the carrageenan model in rodents. Desipramine was tested alone and in combination at 0.3, 1, and 3 mg/kg and prednisolone was tested similarly at 0.3, 1 and 3 mg/kg IP.

C[C@]12C=CC(=O)C=C1CC[C@@H]1[C@@H]2[C@@H](O)C[C@@]2(C)[C@H]1CC[C@]2(O)C(=O)CO [Prednisolone]
Mean # of writhes per 5 minutes ± SEM ([1]; 1 mg/kg ip): 8.00 ± 1.70
Mean # of writhes per 5 minutes ± SEM ([1]; 5 mg/kg ip): 14.43 ± 2.07
Mean # of writhes per 5 minutes ± SEM ([1]; 10 mg/kg ip): 12.29 ± 3.83
Mean # of writhes per 5 minutes ± SEM ([1]; 35 mg/kg ip): 11.29 ± 5.22
Mean AUC ± SEM ([2]; 0.3 mg/Kg): 2302 ± 634.46
Mean AUC ± SEM ([2]; 1 mg/Kg): 1583 ± 574.15
Mean change from baseline ± SEM ([2]; Experiment One, 3 mg/kg, 20 minutes): 1.10 ± 9.30 g
Mean change from baseline ± SEM ([2]; Experiment One, 3 mg/kg, 40 minutes): -52.01 ± 12.52 g
Mean change from baseline ± SEM ([2]; Experiment One, 3 mg/kg, 60 minutes): -101.90 ± 15.02 g
Mean change from baseline ± SEM ([2]; Experiment One, 3 mg/kg, 80 minutes): -159.70 ± 16.77 g
Mean change from baseline ± SEM ([2]; Experiment One, 3 mg/kg, 120 minutes): -212.90 ± 20.82 g
Mean change from baseline ± SEM ([2]; Experiment One, 10 mg/kg, 20 minutes): 5.60 ± 6.14 g
Mean change from baseline ± SEM ([2]; Experiment One, 10 mg/kg, 40 minutes): -44.30 ± 11.47 g
Mean change from baseline ± SEM ([2]; Experiment One, 10 mg/kg, 60 minutes): -97.50 ± 14.33 g
Mean change from baseline ± SEM ([2]; Experiment One, 10 mg/kg, 80 minutes): -147.30 ± 16.72 g
Mean change from baseline ± SEM ([2]; Experiment One, 10 mg/kg, 120 minutes): -193.70 ± 18.07 g
Mean change from baseline ± SEM ([2]; Experiment One, 20 mg/kg, 20 minutes): -29.40 ± 5.10 g
Mean change from baseline ± SEM ([2]; Experiment One, 20 mg/kg, 40 minutes): -82.60 ± 5.59 g
Mean change from baseline ± SEM ([2]; Experiment One, 20 mg/kg, 60 minutes): -135.80 ± 7.21 g
Mean change from baseline ± SEM ([2]; Experiment One, 20 mg/kg, 80 minutes): -189.00 ± 8.41 g
Mean change from baseline ± SEM ([2]; Experiment One, 20 mg/kg, 120 minutes): -246.20 ± 12.02 g
Mean change from baseline ± SEM ([2]; Experiment One, 35 mg/kg, 20 minutes): -13.60 ± 7.52 g
Mean change from baseline ± SEM ([2]; Experiment One, 35 mg/kg, 40 minutes): -73.60 ± 7.52 g
Mean change from baseline ± SEM ([2]; Experiment One, 35 mg/kg, 60 minutes): -130.20 ± 7.26 g
Mean change from baseline ± SEM ([2]; Experiment One, 35 mg/kg, 80 minutes): -176.60 ± 10.69 g
Mean change from baseline ± SEM ([2]; Experiment One, 35 mg/kg, 120 minutes): -216.20 ± 11.39 g
Mean change from baseline ± SEM ([2]; Experiment Two, first set of rows, 0.3 mg/kg, 20 minutes): 4.79 ± 7.92 g
Mean change from baseline ± SEM ([2]; Experiment Two, first set of rows, 0.3 mg/kg, 40 minutes): 16.77 ± 5.63 g
Mean change from baseline ± SEM ([2]; Experiment Two, first set of rows, 0.3 mg/kg, 60 minutes): 19.7 ± 5.68 g
Mean change from baseline ± SEM ([2]; Experiment Two, first set of rows, 0.3 mg/kg, 80 minutes): 24.31 ± 6.40 g
Mean change from baseline ± SEM ([2]; Experiment Two, first set of rows, 0.3 mg/kg, 120 minutes): 25.57 ± 6.79 g
Mean change from baseline ± SEM ([2]; Experiment Two, first set of rows, 1 mg/kg, 20 minutes): 27.60 ± 5.74 g
Mean change from baseline ± SEM ([2]; Experiment Two, first set of rows, 1 mg/kg, 40 minutes): 28.64 ± 5.42 g
Mean change from baseline ± SEM ([2]; Experiment Two, first set of rows, 1 mg/kg, 60 minutes): 25.54 ± 6.04 g
Mean change from baseline ± SEM ([2]; Experiment Two, first set of rows, 1 mg/kg, 80 minutes): 23.77 ± 6.08 g
Mean change from baseline ± SEM ([2]; Experiment Two, first set of rows, 1 mg/kg, 120 minutes): 35.14 ± 5.26 g
Mean change from baseline ± SEM ([2]; Experiment Two, second set of rows, 0.3 mg/kg, 20 minutes): 0.00 ± 7.42 g
Mean change from baseline ± SEM ([2]; Experiment Two, second set of rows, 0.3 mg/kg, 40 minutes): -4.86 ± 4.86 g
Mean change from baseline ± SEM ([2]; Experiment Two, second set of rows, 0.3 mg/kg, 60 minutes): 0.00 ± 0.00 g
Mean change from baseline ± SEM ([2]; Experiment Two, second set of rows, 0.3 mg/kg, 80 minutes): 4.86 ± 4.86 g
Mean change from baseline ± SEM ([2]; Experiment Two, second set of rows, 0.3 mg/kg, 120 minutes): 31.43 ± 5.54 g
Mean change from baseline ± SEM ([2]; Experiment Two, second set of rows, 1 mg/kg, 20 minutes): 9.71 ± 6.27 g
Mean change from baseline ± SEM ([2]; Experiment Two, second set of rows, 1 mg/kg, 40 minutes): 0.00 ± 10.49 g
Mean change from baseline ± SEM ([2]; Experiment Two, second set of rows, 1 mg/kg, 60 minutes): 16.14 ± 7.73 g
Mean change from baseline ± SEM ([2]; Experiment Two, second set of rows, 1 mg/kg, 80 minutes): 24.14 ± 7.56 g
Mean change from baseline ± SEM ([2]; Experiment Two, second set of rows, 1 mg/kg, 120 minutes): 12.86 ± 13.38 g
decrease of median-effect dose (Dm) after co-administration compared to the monotherapy ([2]; median-effect model, prednisolone/nortriptyline 1:3 fixed ratios): 10 fold
